Experimental data reported in US20220340566A1, “BENZYL AMINE-CONTAINING 5,6-HETEROAROMATIC COMPOUNDS USEFUL AGAINST MYCOBACTERIAL INFECTION” (priority 2019, published 2022).
Like-named read-outs stand apart in the source and are kept apart here.

Columns and labels:
[1] = system: Mycobacterium avium ATCC700898; assay: Determination of IC85 against M. avium (resazurin fluorescence); type: cell-based; conditions: 37° C., 3 days incubation then resazurin, fluorescence one day later
[2] = Metabolic stability test in pooled human liver microsomes; type: in vitro ADME; conditions: human liver microsomes 0.5 mg protein/mL, 1 mmol/L NADPH, 37° C., 30 minutes
Experimental: Using a commercially available pooled human liver microsomes, a compound of the present invention was reacted for a constant time, a remaining rate was calculated by comparing a reacted sample and an unreacted sample, thereby, a degree of metabolism in liver was assessed.
A reaction was performed (oxidative reaction) at 37° C. for 0 minute or 30 minutes in the presence of 1 mmol/L NADPH in 0.2 mL of a buffer (50 mmol/L Tris-HCl pH 7.4, 150 mmol/L potassium chloride, 10 mmol/L magnesium chloride) containing 0.5 mg protein/mL of human liver microsomes. After the reaction, 50 μL of the reaction solution was added to 100 μL of a methanol/acetonitrile=1/1 (v/v), mixed and centrifuged at 3000 rpm for 15 minutes. The compound of the present invention in the supernatant was quantified by LC/MS/MS or solid phase extraction (SPE)/MS, and a remaining amount of the compound of the present invention after the reaction was calculated, letting a compound amount at 0 minute reaction time to be 100%.

[3] = Mycobacterium avium, ATCC700898, M. avium ATCC700898, CAMHB medium, read-out: IC85

[2H]c1c(C([2H])([2H])[2H])c([2H])n2c(C(=O)NCc3cc(F)ccc3F)c(C)nc2c1[2H] [Compound I-3-39]
IC85 [1, 3]: 0.8 µM
MS_h_% (remaining amount of compound after reaction, 0 minute = 100%) [2]: 67.2%

Cc1cc2nc(C)c(C(=O)NCc3ccc(N4CCN(c5ccc(OC(F)(F)F)cc5)[C@@H](C)C4)c(F)c3)n2cc1Cl [Compound I-1-27]
IC85 [1, 3]: 0.033 µM
MS_h_% (remaining amount of compound after reaction, 0 minute = 100%) [2]: 80%

CCOc1ccc(N2CCN(c3ccc(CNC(=O)c4c(CC)nc5cc(F)ccn45)cc3F)C[C@@H]2C)cc1.Cl [Compound I-1-109]
IC85 [1, 3]: 0.0071 µM
MS_h_% (remaining amount of compound after reaction, 0 minute = 100%) [2]: 80%

CCc1nc2ccc(Cl)cn2c1C(=O)NCc1ccc(C2CCN(c3ccc(OCC(F)(F)F)nc3)CC2)cc1F.Cl [Compound I-1-142]
IC85 [1, 3]: 0.03 µM
MS_h_% (remaining amount of compound after reaction, 0 minute = 100%) [2]: 71%

CCOc1ccc(N2CCN(c3ccc(CNC(=O)c4c(CC)nc5ccc(Cl)cn45)cc3F)C[C@@H]2C)cc1OC.Cl [Compound I-1-55]
IC85 [1, 3]: 0.69 µM
MS_h_% (remaining amount of compound after reaction, 0 minute = 100%) [2]: 84%

Cl.O=C(NCc1ccc(OC2CCC(Oc3ccc(OC(F)(F)F)cc3)CC2)c(F)c1)c1cnc2ccc(Cl)cn12 (stereo not drawn) [Compound I-3-41]
IC85 [1, 3]: 0.15 µM
MS_h_% (remaining amount of compound after reaction, 0 minute = 100%) [2]: 65.4%

CCc1nc2cc(F)ccn2c1C(=O)NCc1ccc(N2CCN(c3cc(F)c(OC(F)(F)F)c(F)c3)[C@@H](C)C2)c(F)c1.Cl [Compound I-1-119]
IC85 [1, 3]: 0.0065 µM
MS_h_% (remaining amount of compound after reaction, 0 minute = 100%) [2]: 63%

Cc1ccn2c(C(=O)NCc3cc(F)c(N4CCC(c5ccc(OC(F)(F)F)cc5)CC4)c(F)c3)c(C)nc2c1.Cl [Compound I-1-67]
IC85 [1, 3]: 0.068 µM
MS_h_% (remaining amount of compound after reaction, 0 minute = 100%) [2]: 93%

Cc1ccn2c(C(=O)NCc3ccc(N4CCN(c5ccc(C(F)(F)F)cn5)CC4)c(C(F)(F)F)c3)c(C)nc2c1 [Compound I-2-13]
IC85 [1, 3]: 0.35 µM
MS_h_% (remaining amount of compound after reaction, 0 minute = 100%) [2]: 67.6%

CCc1nc2ccc(Cl)cn2c1C(=O)NCc1ccc(C2CCN(c3ccc(OCC(C)C)cn3)CC2)c(F)c1.Cl [Compound I-1-79]
IC85 [1, 3]: 0.036 µM
MS_h_% (remaining amount of compound after reaction, 0 minute = 100%) [2]: 65%

CCc1nc2cc(F)ccn2c1C(=O)NCc1ccc(N2CCN(c3ccc(C(F)(F)F)cc3)[C@@H](C)C2)c(F)c1.Cl [Compound I-1-112]
IC85 [1, 3]: 0.0014 µM
MS_h_% (remaining amount of compound after reaction, 0 minute = 100%) [2]: 69%

CCc1nc2cc(F)ccn2c1C(=O)NCc1cc(F)c(N2CCN(c3ccc(OC(F)(F)F)cc3)[C@@H](C)C2)c(F)c1.Cl [Compound I-1-95]
IC85 [1, 3]: 0.0022 µM
MS_h_% (remaining amount of compound after reaction, 0 minute = 100%) [2]: 91%

CCc1nc2cc(F)ccn2c1C(=O)NCc1ccc(N2C[C@H](C)N(c3ccc(OC(F)(F)F)cc3)C[C@H]2C)c(F)c1.Cl [Compound I-1-136]
IC85 [1, 3]: 0.016 µM
MS_h_% (remaining amount of compound after reaction, 0 minute = 100%) [2]: 86%

CCc1nc2cc(F)ccn2c1C(=O)NCc1ccc(C2CCN(c3ccc(C(C)(C)C)cc3)CC2)cc1F.Cl [Compound I-1-149]
IC85 [1, 3]: 0.015 µM
MS_h_% (remaining amount of compound after reaction, 0 minute = 100%) [2]: 63%

CCc1nc2cc(C)c(F)cn2c1C(=O)NCc1ccc(N2CCN(c3ccc(OC(F)(F)F)cc3)[C@@H](C)C2)c(F)c1 [Compound I-1-49]
IC85 [1, 3]: 0.068 µM
MS_h_% (remaining amount of compound after reaction, 0 minute = 100%) [2]: 59%

CCc1nc2cc(F)ccn2c1C(=O)NCc1ccc(N2CC=C(c3ccc(OC(F)(F)F)cc3)CC2)c(F)c1.Cl [Compound I-1-87]
IC85 [1, 3]: 0.0079 µM
MS_h_% (remaining amount of compound after reaction, 0 minute = 100%) [2]: 86%

Cc1nc2ccccn2c1C(=O)NCc1ccc(N2CCN(c3ccc(OC(F)(F)F)cc3)[C@@H](C)C2)c(F)c1.Cl [Compound I-1-52]
IC85 [1, 3]: 0.0054 µM
MS_h_% (remaining amount of compound after reaction, 0 minute = 100%) [2]: 84%

O=C(NCc1ccc(C2CCN(c3ccc(OC(F)(F)F)cc3)CC2)c(F)c1)c1c(C(F)(F)F)nc2ccc(Cl)cn12 [Compound I-1-17]
IC85 ([1]; M. avium ATCC700898, CAMHB medium): 0.013 µM
MS_h_% (remaining amount of compound after reaction, 0 minute = 100%) [2]: 63%
